# Reference: patent US6649193B1, “Prophylactic therapeutic and industrial antioxidant compositions enhanced with stabilized atomic hydrogen/free electrons and methods to prepare and use such compositions” (Henceforth Hibernia Inc., priority 1999, dated 2003)
# Test: Standardized in-vitro tests of free radical / reactive species scavenging
# Assay type: biochemical
# Settings: cage-like agent added to the solution before electrolysis
# Excerpt: Electrochemical Method to Produce and Encage Atomic Hydrogen: Electrolysis is a very efficient method of producing atomic hydrogen free electrons. In the past, though, it was not possible to separate oxidizing products produced at the anode and reducing products produced at the cathode. Recently, Japanese scientists used a semipermeable membrane to separate the cathode and anode areas, while not perturbing the flow of electrons delivered to the media. Such devices are, for instance, described in Y. Shiramizu et al., J. Electrochem. Soc., Vol. 143, 1632 (1996), the content of which is incorporated by reference in its entirety. In short, such devices consist of a chamber (usually made of noncorrosive material such as plastic) which is divided in two compartments with a water-tight semipermeable Nafion membrane (Dupont corporation). In each compartment, there is an electrode connected to a DC current source. […] Several parameters can be measured to ensure the efficiency of electrolysis. […] The efficiency of reduction of vitamin B12 can be tested by measuring UV/VISIBLE spectra and recording the absorbance at 387 nm, which is proportional to the amount of reduced vitamin B12, see G. Chithambarathanu Pillai and E. S. Gould, Inorganic Chemistry, Vol. 25, 3353 (1986), the content of which is incorporated by reference in its entirety. […]
substance,measurement,value
cyanocobalamin [vitamin B12],scavenging ability of the electrolyzed solution,enhanced in a dose-dependent fashion
